Assay results as given in article PMC5357154 (Cell chemical biology, 2017).

Experiments:
[1] = tested on: caspases in HeLa and THP-1 cells; experiment: Caspase inhibition across cell culture assays; assay type: cell-based, human; conditions: NSAIDs up to 500 μM
caspase-1 = target: T1, caspase-1 (Homo sapiens, UniProt P29466); experiment: Caspase catalytic activity IC50 determination, caspase-1; assay type: biochemical; conditions: 2.5 nM enzyme, 6.5 μM WEHD substrate, tested 26.1 nM to 66 μM
T1 sequence (P29466 120-297 limits assumed): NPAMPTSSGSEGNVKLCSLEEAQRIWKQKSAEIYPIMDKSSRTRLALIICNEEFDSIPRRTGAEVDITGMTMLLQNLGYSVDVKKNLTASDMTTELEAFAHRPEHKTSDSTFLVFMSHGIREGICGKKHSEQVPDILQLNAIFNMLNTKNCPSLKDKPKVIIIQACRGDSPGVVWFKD
T1 sequence (P29466 317-404 limits assumed): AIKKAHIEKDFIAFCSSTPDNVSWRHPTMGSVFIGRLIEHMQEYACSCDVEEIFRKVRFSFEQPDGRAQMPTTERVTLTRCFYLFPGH

caspase-3 [2] = target: T2, caspase-3 (Homo sapiens, UniProt P42574); experiment: Caspase-3 tryptophan fluorescence quenching; assay type: binding
T2 sequence (P42574 29-175 limits assumed): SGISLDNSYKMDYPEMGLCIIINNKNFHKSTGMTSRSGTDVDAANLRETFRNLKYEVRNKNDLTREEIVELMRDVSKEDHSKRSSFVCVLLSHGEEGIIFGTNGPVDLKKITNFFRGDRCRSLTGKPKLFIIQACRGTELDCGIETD
T2 sequence (P42574 176-277 limits assumed): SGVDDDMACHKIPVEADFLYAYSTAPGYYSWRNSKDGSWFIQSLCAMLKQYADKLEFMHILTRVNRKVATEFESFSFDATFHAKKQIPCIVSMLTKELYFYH

caspase-9 = target: T3, caspase-9 (Homo sapiens, UniProt P55211); experiment: Caspase catalytic activity IC50 determination, caspase-9; assay type: biochemical; conditions: 200 nM enzyme, 6.5 μM LEHD substrate, tested 26.1 nM to 66 μM
T3 sequence (P55211 1-315 limits assumed): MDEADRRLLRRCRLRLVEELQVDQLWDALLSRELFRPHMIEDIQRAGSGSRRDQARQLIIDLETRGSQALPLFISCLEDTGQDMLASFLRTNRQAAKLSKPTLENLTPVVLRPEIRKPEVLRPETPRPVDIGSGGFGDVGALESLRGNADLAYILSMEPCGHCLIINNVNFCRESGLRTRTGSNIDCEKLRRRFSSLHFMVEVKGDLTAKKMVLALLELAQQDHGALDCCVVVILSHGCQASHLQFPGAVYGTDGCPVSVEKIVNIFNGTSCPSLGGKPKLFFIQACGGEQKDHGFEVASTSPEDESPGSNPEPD
T3 sequence (P55211 331-416 limits assumed): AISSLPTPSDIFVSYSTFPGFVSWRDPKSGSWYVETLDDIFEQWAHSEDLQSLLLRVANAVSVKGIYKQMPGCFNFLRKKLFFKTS

caspase-3 [3] = target: T2, caspase-3; experiment: Caspase catalytic activity IC50 determination, caspase-3; assay type: biochemical; conditions: 200 nM enzyme, 3.3 μM DEVD substrate, tested 26.1 nM to 66 μM
caspase-5 = target: T4, caspase-5 (Homo sapiens, UniProt P51878); experiment: Caspase catalytic activity IC50 determination, caspase-5; assay type: biochemical; conditions: 20 nM enzyme, 10 μM LEHD substrate, tested 26.1 nM to 66 μM
T4 sequence (P51878 137-327 limits assumed): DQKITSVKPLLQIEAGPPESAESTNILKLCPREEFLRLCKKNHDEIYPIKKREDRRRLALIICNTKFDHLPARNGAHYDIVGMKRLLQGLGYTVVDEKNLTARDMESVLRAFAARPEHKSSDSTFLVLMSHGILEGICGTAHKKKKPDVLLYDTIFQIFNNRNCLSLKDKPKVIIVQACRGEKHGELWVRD
T4 sequence (P51878 347-434 limits assumed): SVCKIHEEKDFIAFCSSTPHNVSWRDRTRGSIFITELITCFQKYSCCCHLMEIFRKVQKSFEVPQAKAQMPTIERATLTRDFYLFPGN

caspase-4 = target: T5, caspase-4 (Homo sapiens, UniProt P49662); experiment: Caspase catalytic activity IC50 determination, caspase-4; assay type: biochemical; conditions: 1 nM enzyme, 10 μM LEHD substrate, tested 26.1 nM to 66 μM
T5 sequence (P49662 81-270 limits assumed): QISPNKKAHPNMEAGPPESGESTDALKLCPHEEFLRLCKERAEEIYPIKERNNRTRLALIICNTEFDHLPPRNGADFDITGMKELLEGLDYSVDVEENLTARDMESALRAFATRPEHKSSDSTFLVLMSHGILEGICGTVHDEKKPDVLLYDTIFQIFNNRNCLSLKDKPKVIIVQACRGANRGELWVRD
T5 sequence (P49662 290-377 limits assumed): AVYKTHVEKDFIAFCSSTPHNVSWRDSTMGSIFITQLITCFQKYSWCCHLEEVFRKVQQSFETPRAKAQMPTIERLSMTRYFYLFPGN

IC50 (caspase-1) | Kd (caspase-3 [2]) [µM] | IC50 (caspase-9) | IC50 (caspase-3 [3]) | IC50 (caspase-5) | IC50 (caspase-4) | Structure (SMILES) | caspase inhibitory capability, rank order across cellular assays [1]
No activity | – | – | – | – | – | CC(C)Cc1ccc(C(C)C(=O)O)cc1 (stereo not shown) [Ibuprofen] | weak inhibitors
– | 30 ± 2 | – | – | – | – | CC(C(=O)O)c1ccc(N2Cc3ccccc3C2=O)cc1 (stereo not shown) [Indoprofen] | substantial inhibitory capabilities
– | – | – | – | – | – | O=C(O)CCC(=O)c1ccc(-c2ccccc2)cc1 [Fenbufen] | substantial inhibitory capabilities
No activity | 1290 ± 10 | No activity | No activity | No activity | No activity | CC(=O)Oc1ccccc1C(=O)O [Aspirin] | ineffective
– | – | – | – | – | – | COc1ccc2cc([C@H](C)C(=O)O)ccc2c1 [Naproxen] | weak inhibitors
